For 23 compounds, AC50 results are on record in patent US20230104936A1, “TRPML MODULATORS” (Casma Therapeutics, Inc., priority 2019, published 2023).

Molecules are shown by their SMILES.

As usually defined, the AC50 is the concentration at which the activity in the assay is half-maximal.

The first assay deals with TFEB. In words: TFEB nuclear translocation assay, HeLa wt cells. The conditions noted are these: 2 hrs compound treatment, Table 1 does not say HeLa wt or TRPML1 KO. The assay is classed as cell-based. Summed up: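 TFEB translocation into the nucleus of HeLa wt cells is scored by high-content immunofluorescence after 2 hrs of compound treatment at 37° C, reported as AC50.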
As for `C[C@H](c1cccc(F)c1N1CCCCC1)S(=O)(=O)c1ccc(S(=N)(=O)N(C)C)cc1` (single isomer, unassigned) [Compound A-894], the half-maximal activity concentration (AC50) lay in the range of 2.01 to 8 µM.
The same measure, in the same setting: for `Cc1cnc(N2CCC(CN3CCC(F)(F)CC3)CC2)c(C(C)S(=O)(=O)c2ccc(S(=O)(=O)N(C)C)cc2)c1` (single isomer, unassigned) [Compound A-995, 4-((1-(2-(4-((4,4-difluoropiperidin-1-yl)methyl)piperidin-1-yl)-5-methylpyridin-3-yl)ethyl)sulfonyl)-N,N-dimethylbenzenesulfonamide] the value was at least 10 µM; for `CN(C)S(=O)(=O)c1ccc(S(=O)(=O)Nc2ccccc2N2C3CC2CN(c2ccc(Cl)cc2F)C3)cc1` [Compound A-28, N4-{2-[3-(4-chloro-2-fluorophenyl)-3,6-diazabicyclo[3.1.1]heptan-6-yl]phenyl}-N1,N1-dimethylbenzene-1,4-disulfonamide], at most 2 µM.

The assay is the same for the next values; noted with them: Homo sapiens, HeLa, 2 h, 2 hrs compound treatment, Table 1 does not say HeLa wt or TRPML1 KO.
Regarding `C[C@H]1CN(CC2CCN(c3c(F)cccc3NS(=O)(=O)c3ccc(S(=O)(=O)N(C)C)cc3)CC2)C[C@H](C)O1` [Compound A-826, N4-[2-(4-{[(2S,6S)-2,6-dimethylmorpholin-4-yl]methyl}piperidin-1-yl)-3-fluorophenyl]-N1,N1-dimethylbenzene-1,4-disulfonamide], the half-maximal activity concentration (AC50) is at most 2 µM.
On the same count and under the same terms, then `CN(C)S(=O)(=O)c1ccc(S(=O)(=O)Nc2ccccc2N2CCN(C(=O)C34CCC(CC3)C4)CC2)cc1` [Compound A-460, N4-[2-(4-{bicyclo[2.2.1]heptane-1-carbonyl}piperazin-1-yl)phenyl]-N1,N1-dimethylbenzene-1,4-disulfonamide], with at most 2 µM; and `CCOCC1(C)CCN(c2ccccc2NS(=O)(=O)c2ccc(S(=O)(=O)N(C)C)cc2)CC1` [Compound A-719, N4-{2-[4-(ethoxymethyl)-4-methylpiperidin-1-yl]phenyl}-N1,N1-dimethylbenzene-1,4-disulfonamide], with at most 2 µM.
The same measure, in the same setting: for `CN1CC2(CCN(c3ccccc3NS(=O)(=O)c3ccc(S(=O)(=O)C(F)F)cc3)CC2)c2ccc(F)cc21` [Compound A-246, 4-difluoromethanesulfonyl-N-(2-{6-fluoro-1-methyl-1,2-dihydrospiro[indole-3,4′-piperidin]-1′-yl}phenyl)benzene-1-sulfonamide] the value was at most 2 µM; for `COCC1(C)CCN(c2ccccc2NS(=O)(=O)Cc2cccc(S(C)(=O)=O)c2)CC1` [Compound A-586, l-(3-methanesulfonylphenyl)-N-{2-[4-(methoxymethyl)-4-methylpiperidin-1-yl]phenyl}methanesulfonamide], 8.01 to 9.99 µM.
Still for that read-out and setting: for `C[C@@H]1COC[C@@H](C)N1CC1CN(c2c(F)cccc2NS(=O)(=O)c2ccc(S(=O)(=O)N(C)C)cc2)C1` (stereo in doubt) [Compound A-915, rel-N4-[2-(3-{[(3R,5R)-3,5-dimethylmorpholin-4-yl]methyl}azetidin-1-yl)-3-fluorophenyl]-N1,N1-dimethylbenzene-1,4-disulfonamide] the value was at least 10 µM; for `CN(C)S(=O)(=O)c1ccc(S(=O)(=O)Nc2ccccc2N2CCC(c3ccccc3-c3nnn[nH]3)CC2)cc1` [Compound A-280, N1,N1-dimethyl-N4-(2-{4-[2-(1H-1,2,3,4-tetrazol-5-yl)phenyl]piperidin-1-yl}phenyl)benzene-1,4-disulfonamide], at least 10 µM.
Compound `COc1ccc(S(=O)(=O)Nc2ccccc2OCc2ccc(F)cc2F)cc1` [Compound A-187, N-(2-((2,4-difluorobenzyl)oxy)phenyl)-4-methoxybenzenesulfonamide] registered an AC50 of at least 10 µM.
With `CN(C)S(=O)(=O)c1ccc(S(=O)(=O)Nc2ccccc2N2CCN(C(c3ccccc3)C(F)(F)F)CC2)cc1` (centres unmarked) [Compound A-545, N1,N1-dimethyl-N4-{2-[4-(2,2,2-trifluoro-1-phenylethyl)piperazin-1-yl]phenyl}benzene-1,4-disulfonamide], the concentration at half-maximal activity (AC50) is at most 2 µM.
Same read-out and setting: then `CN1C(=O)C2(CCN(c3ccccc3NS(=O)(=O)c3ccc(S(=O)(=O)N(C)C)cc3)CC2)c2cccnc21` [Compound A-282, N1,N1-dimethyl-N4-(2-{1′-methyl-2′-oxo-1′,2′-dihydrospiro[piperidine-4,3′-pyrrolo[2,3-b]pyridin]-1-yl}phenyl)benzene-1,4-disulfonamide], with 2.01 to 8 µM; and `COCCCC1CCN(c2ccccc2NS(=O)(=O)c2ccc(S(=O)(=O)N(C)C)cc2)CC1` [Compound A-496, N4-{2-[4-(3-methoxypropyl)piperidin-1-yl]phenyl}-N1,N1-dimethylbenzene-1,4-disulfonamide], with at most 2 µM.
In turn, `C[C@@H]1CN(CC2CCN(c3c(C#N)cccc3NS(=O)(=O)c3ccc(S(=O)(=O)N(C)C)cc3)CC2)C[C@H](C)O1` [Compound A-878, N4-[3-cyano-2-(4-{[(2R,6S)-2,6-dimethylmorpholin-4-yl]methyl}piperidin-1-yl)phenyl]-N1,N1-dimethylbenzene-1,4-disulfonamide] yielded an AC50 of at most 2 µM.
As to `CN(C)S(=O)(=O)c1ccc(S(=O)(=O)Nc2ccccc2N2CCCN(C(=O)C(C)(C)C)CC2)cc1` [Compound A-480, N4-{2-[4-(2,2-dimethylpropanoyl)-1,4-diazepan-1-yl]phenyl}-N1,N1-dimethylbenzene-1,4-disulfonamide], the AC50 fell in the range of 2.01 to 8 µM.
On the same count and under the same terms, for `CN(C)S(=O)(=O)c1ccc(S(=O)(=O)Nc2ccccc2N2CCN(c3ccncc3F)CC2)cc1` [Compound A-57, N4-{2-[4-(3-fluoropyridin-4-yl)piperazin-1-yl]phenyl}-N1,N1-dimethylbenzene-1,4-disulfonamide] the value was 2.01 to 8 µM; for `Cc1cc(NS(=O)(=O)c2ccc3c(c2)CCC3)c(Cl)c(N2CCOCC2)c1` [Compound A-823, N-[2-chloro-5-methyl-3-(morpholin-4-yl)phenyl]-2,3-dihydro-1H-indene-5-sulfonamide], at least 10 µM; for `CC(C1CCN(c2c(F)cccc2NS(=O)(=O)c2ccc(S(=N)(=O)N(C)C)cc2)CC1)N1C[C@@H](C)O[C@@H](C)C1` (single isomer, unassigned) [Compound A-871], at most 2 µM.
Same read-out and setting: then `COc1cc(S(=O)(=O)Nc2ccccc2N2CCN(c3ccc(Cl)cc3F)CC2)ccn1` [Compound A-34, N-{2-[4-(4-chloro-2-fluorophenyl)piperazin-1-yl]phenyl}-2-methoxypyridine-4-sulfonamide], with at most 2 µM; and `O=S(=O)(Nc1cc(Cl)ccc1N1CCC2(C1)OCc1ccccc12)c1ccc2c(c1)CCC2` (centres unmarked) [Compound A-357, N-(5-chloro-2-{3H-spiro[2-benzofuran-1,3′-pyrrolidin]-1′-yl}phenyl)-2,3-dihydro-1H-indene-5-sulfonamide], with at least 10 µM; and `O=S(=O)(Nc1ccccc1N1CCC(c2ccc(F)cc2F)CC1)c1ccc(C(F)F)nc1` [Compound A-136, 6-(difluoromethyl)-N-{2-[4-(2,4-difluorophenyl)piperidin-1-yl]phenyl}pyridine-3-sulfonamide], with at most 2 µM.
`CN(C)C1CC2(CCN(c3ccccc3NS(=O)(=O)c3ccc(S(=O)(=O)N(C)C)cc3)CC2)c2ccccc21` (centres unmarked) [Compound A-295, N4-{2-[3-(dimethylamino)-2,3-dihydrospiro[indene-1,4′-piperidin]-1′-yl]phenyl}-N1,N1-dimethylbenzene-1,4-disulfonamide] came in with a half-maximal activity concentration (AC50) of 2.01 to 8 µM.
